Results on eight compounds are retold here after US9518094B2 (priority 2010, dated 2016).

The nature of data set [1]: Slurry interconversion of solid forms with Form A. The format is physicochemical. As to conditions: slurry of the form together with Form A; resulting form (time).
The test system of data set [2] is patients. The data set is described as follows: Toxicity and adverse events in clinical studies of Compound I. The conditions noted are these: early development; out of more than 450 patients.
Data set [3] deals with patients. As to conditions: human, in vivo.
Data set [4] in a line: Solubility assessment of Compound I Form A in solvents and solvent mixtures (visual observation). The format is physicochemical.
The nature of data set [5]: Solid form stability under ambient conditions. The data set is classed as physicochemical. As for the experimental part:
Samples were prepared from Compound I Form A solids or from samples generated from these solids. Form designation for the materials was based on X-ray powder diffraction (XRPD). Care was taken to protect samples from light, unless stated otherwise. Prior to characterization, solids were stored as follows: Form A and Form B (may have contained Form A solids as well) under ambient conditions, Form E and Form H over desiccant in a freezer, Form C in contact with mother liquor in a refrigerator, Form D in contact with mother liquor in a freezer, and Form I in contact with mother liquor under ambient conditions or in a freezer. Due to apparent instability of Form D, all characterization data except solution proton nuclear magnetic resonance spectroscopy (H-NMR) were collected for Form D on the same day. Although the ^1H-NMR analysis was not run until a few days later, the solution for the analysis was prepared on the same day as the rest of the characterization.
A crystal prepared from cold acetone solution was indexed. The indexing solution was determined to be an orthorhombic unit cell with the following cell parameters and calculated volume: a=9.093, b=15.581, c=23.141 Å, V=3278.57(9) Å^3. The formula weight was determined to be 598.81 g/mol. The cell parameters are similar to the cell obtained from the Compound I Form J crystal structure. […]

The nature of data set [6]: Form N solvent removal attempts (heating, vacuum drying, slurry), resulting form by XRPD. The data set is classed as physicochemical. As to conditions: for XRPD result after vacuum drying: 43 mg, 42° C. vac dry 22 hours at 20 mTorr. The procedure:
The resulting solids were characterized by proton NMR spectroscopy. […] Subsequently, the dried sample was characterized by DSC. The observed results are subject to the conditions used at the time of analysis. […] The remaining solids (43 mg) were dried for approximately 22 hours in a vacuum oven at approximately 42° C., at approximately 20 mTorr. The weight loss was not determined but the dried solids were characterized by XRPD.
Solids were recovered via vacuum filtration, washing with acetonitrile (4×1 mL). The solids were left on the filter under vacuum for several minutes to dry the solids. […] In another embodiment, 309.5 mg of solid were slurried in water (4 mL) for approximately 24.5 hours. Solids were recovered via vacuum filtration, washing with water (2×1 mL). The solids were left on the filter under vacuum for approximately 1.5 hours to dry the solids.

Converted amounts (≈) assume the structure as drawn. “Also recorded” adds a separate entry of the source. Like-named read-outs stand apart in the source and are kept apart here.

As for `C/C=C1\NC(=O)[C@H]2CSSCC/C=C/[C@H](CC(=O)N[C@H](C(C)C)C(=O)N2)OC(=O)[C@H](C(C)C)NC1=O` [Form B, romidepsin], the Slurry interconversion entry in data set [1] is recorded as “A + B → A (2 hrs)”.

As for `C/C=C1\NC(=O)[C@H]2CSSCC/C=C/[C@H](CC(=O)N[C@H](C(C)C)C(=O)N2)OC(=O)[C@H](C(C)C)NC1=O` [Compound I, romidepsin], the “deaths during clinical investigations” value in the data set on patients [2] was found to be 6. In addition, in the data set with patients [3], the “Severity of observed toxicities” value is “mild to moderate”; the “serial serum troponin levels and multiple gated acquisition (MUGA) scans” value is reported as “consistently normal”.

On to `C/C=C1\NC(=O)[C@H]2CSSCC/C=C/[C@H](CC(=O)N[C@H](C(C)C)C(=O)N2)OC(=O)[C@H](C(C)C)NC1=O` [Form C, romidepsin], for which the Slurry interconversion entry in data set [1] was “A + C → A (2 hrs)”.

Regarding `C/C=C1\NC(=O)[C@H]2CSSCC/C=C/[C@H](CC(=O)N[C@H](C(C)C)C(=O)N2)OC(=O)[C@H](C(C)C)NC1=O` [Form A, romidepsin], the Slurry interconversion entry in data set [1] is “Remains A”. For the same compound, the solubility in data set [4] (2,2,2-trifluoroethanol (TFE), organic solvent or mixture, thermodynamic from solid, 2,2,2-trifluoroethanol (TFE), ambient temperature, reported values <= actual solubility, approximate, read-out: Solubility) is greater than 100 mg/mL; in data set [4] (2,2,2-trifluoroethanol (TFE), ambient temperature, reported values <= actual solubility, approximate, listed as Compound I, Form A), 158.9 mg/mL (≈ 294 mM); in data set [4] (2-butanone (MEK), organic solvent or mixture, thermodynamic from solid, 2-Butanone (MEK), ambient temperature, reported values <= actual solubility, approximate, read-out: Solubility), 12.5 mg/mL (≈ 23.1 mM); in data set [4] ((0.1:0.1) TFE:DCM, organic solvent or mixture, thermodynamic from solid, (0.1:0.1) TFE:DCM, ambient temperature, reported values <= actual solubility, approximate, read-out: Solubility) it was 97 mg/mL (≈ 179 mM); in data set [4] ((0.5:0.1) acetone:DCM, organic solvent or mixture, thermodynamic from solid, (0.5:0.1) Acetone:DCM, ambient temperature, reported values <= actual solubility, approximate, read-out: Solubility), 38 mg/mL (≈ 70.3 mM); in data set [4] ((1:0.1) 2-butanone:TFE, organic solvent or mixture, thermodynamic from solid, (1:0.1) 2-Butanone:TFE, ambient temperature, reported values <= actual solubility, approximate, read-out: Solubility), 20.6 mg/mL (≈ 38.1 mM). Also, the solubility in data set [4] ((1:0.1) toluene:TFE, organic solvent or mixture, thermodynamic from solid, (1:0.1) Toluene:TFE, ambient temperature, reported values <= actual solubility, approximate, read-out: Solubility) came to 21.4 mg/mL (≈ 39.6 mM); in data set [4] ((1:0.2) acetonitrile (ACN):TFE, organic solvent or mixture, thermodynamic from solid, (1:0.2) Acetonitrile (ACN):TFE, ambient temperature, reported values <= actual solubility, approximate, read-out: Solubility), 17.9 mg/mL (≈ 33.1 mM); in data set [4] ((1:0.2) ethanol:TFE, organic solvent or mixture, thermodynamic from solid, (1:0.2) Ethanol:TFE, ambient temperature, reported values <= actual solubility, approximate, read-out: Solubility), 16.3 mg/mL (≈ 30.1 mM); in data set [4] ((1:0.5) dioxane:acetone, organic solvent or mixture, thermodynamic from solid, (1:0.5) Dioxane:Acetone, ambient temperature, reported values <= actual solubility, approximate, read-out: Solubility), 13.3 mg/mL (≈ 24.6 mM); in data set [4] ((1:1) 2-propanol:acetone, 60 °C, organic solvent or mixture, thermodynamic from solid, (1:1) 2-Propanol:Acetone, hot plate set to 60° C., reported values <= actual solubility, approximate, read-out: Solubility), 11.5 mg/mL (≈ 21.3 mM); in data set [4] ((1:1) ethanol/IPA, 70 °C, organic solvent or mixture, thermodynamic from solid, (1:1) Ethanol/IPA, hot plate set to 70° C., reported values <= actual solubility, approximate, read-out: Solubility), 28 mg/mL (≈ 51.8 mM). Further, the solubility in data set [4] ((1:3) ethanol/IPA, 70 °C, organic solvent or mixture, thermodynamic from solid, (l:3) Ethanol/IPA, hot plate set to 70° C., reported values <= actual solubility, approximate, read-out: Solubility) was 10 mg/mL (≈ 18.5 mM); in data set [4] ((1.5:0.5) water:DCM, aqueous with cosolvent or surfactant or cyclodextrin, thermodynamic from solid, (1.5:0.5) Water:DCM, ambient temperature, reported values <= actual solubility, approximate, read-out: Solubility) it was 12.4 mg/mL (≈ 22.9 mM); in data set [4] ((1.5:0.8) ethyl acetate:acetone, organic solvent or mixture, thermodynamic from solid, (1.5:0.8) Ethyl Acetate:Acetone, ambient temperature, reported values <= actual solubility, approximate, read-out: Solubility), 8.9 mg/mL (≈ 16.5 mM); in data set [4] ((1.5:1) heptane:DCM, 60 °C, organic solvent or mixture, thermodynamic from solid, (1.5:1) Heptane:DCM, hot plate set to 60° C., reported values <= actual solubility, approximate, read-out: Solubility) it was 8 mg/mL (≈ 14.8 mM); in data set [4] ((1.5:1) methanol:TFE, 60 °C, organic solvent or mixture, thermodynamic from solid, (1.5:1) Methanol:TFE, hot plate set to 60° C., reported values <= actual solubility, approximate, read-out: Solubility) it was 8.7 mg/mL (≈ 16.1 mM); in data set [4] ((4.5:3) isopropyl ether:ethanol, organic solvent or mixture, thermodynamic from solid, (4.5:3) Isopropyl Ether:Ethanol, ambient temperature, reported values <= actual solubility, approximate, read-out: Solubility), 6.8 mg/mL (≈ 12.6 mM). The solubility in data set [4] (Acetone, ambient temperature, reported values <= actual solubility, approximate, listed as Compound I, Form A) was 28.2 mg/mL (≈ 52.2 mM); in data set [4] (Dichloromethane (DCM), ambient temperature, reported values <= actual solubility, approximate, listed as Compound I Form A), “over 100 mg/ml”; in data set [4] (Dimethylformamide (DMF), ambient temperature, reported values <= actual solubility, approximate, listed as Compound I Form A), “over 100 mg/ml”; in data set [4] (Dimethylformamide (DMF), ambient temperature, reported values <= actual solubility, approximate, listed as Compound I, Form A), 248.5 mg/mL (≈ 460 mM); in data set [4] (acetone, organic solvent or mixture, thermodynamic from solid, Acetone, ambient temperature, reported values <= actual solubility, approximate, read-out: Solubility) it was 22.4 mg/mL (≈ 41.4 mM); in data set [4] (chloroform, organic solvent or mixture, thermodynamic from solid, Chloroform, ambient temperature, reported values <= actual solubility, approximate, read-out: Solubility), 26.5 mg/mL (≈ 49 mM). The solubility is 23.5 mg/mL (≈ 43.5 mM) in data set [4] (ethanol (EtOH), organic solvent or mixture, thermodynamic from solid, Ethanol (EtOH), ambient temperature, reported values <= actual solubility, approximate, read-out: Solubility); 4.6 mg/mL (≈ 8.51 mM) in data set [4] (isopropanol (IPA), organic solvent or mixture, thermodynamic from solid, Isopropanol (IPA), ambient temperature, reported values <= actual solubility, approximate, read-out: Solubility); greater than 10 mg/mL in data set [4] (majority of the solvents and solvent combinations tested, organic solvent or mixture, thermodynamic from solid, majority of solvent and solvent combinations tested, read-out: moderate solubility); 23.6 mg/mL (≈ 43.6 mM) in data set [4] (nitromethane, organic solvent or mixture, thermodynamic from solid, Nitromethane, ambient temperature, reported values <= actual solubility, approximate, read-out: Solubility).

For the compound `C/C=C1\NC(=O)[C@H]2CSSCC/C=C/[C@H](CC(=O)N[C@H](C(C)C)C(=O)N2)OC(=O)[C@H](C(C)C)NC1=O` [Form E, romidepsin], the Slurry interconversion entry in data set [1] is given as “A + E → A, trace E”.

`C/C=C1\NC(=O)[C@H]2CSSCC/C=C/[C@H](CC(=O)N[C@@H](C(C)C)C(=O)N2)OC(=O)[C@H](C(C)C)NC1=O` [Form D, romidepsin]: the Slurry interconversion entry in data set [1] is “A + D → A, trace C”. In addition, the “Form conversion under ambient conditions” value in data set [5] is given as “converts to Form A”.

Regarding `C/C=C1\NC(=O)[C@H]2CSSCC/C=C/[C@H](CC(=O)N[C@H](C(C)C)C(=O)N2)OC(=O)[C@H](C(C)C)NC1=O` [Form I, romidepsin], the “Form conversion under ambient conditions” value in data set [5] (listed as Compound I Form I) is on record as “converts to Form H”.

Regarding `C/C=C1\NC(=O)[C@H]2CSSCC/C=C/[C@H](CC(=O)N[C@H](C(C)C)C(=O)N2)OC(=O)[C@H](C(C)C)NC1=O` [Form N, romidepsin], the “XRPD result after heating” value in data set [6] (10.3 mg, heated to 180° C. by DSC (crimped)) is reported as “Form A + 2 weak peaks”. For the same compound, the “XRPD result after vacuum drying” value is listed as “unknown + Form N” in data set [6] and “contains XRPD peaks of Form N but exhibits additional unknown peaks” in data set [6] (listed as Compound I, Form N). Further, the “XRPD result after slurry” value in data set [6] (152.4 mg, 1 mL acetonitrile, slurry 1 hour) is reported as “pattern T”. Further, the “HR XRPD result after vacuum drying” value in data set [6] (308.3 mg, RT vac dry 5 days at 5 mTorr) is given as “exhibited Form N; also recorded: Form N + weak peak”. Further, in data set [6] (309.5 mg, 4 mL water, slurry 24.5 hours), the “HR XRPD result after slurry” value is “a mixture of Forms C and A; also recorded: Forms C + A + peaks ^g”.

A word on the solubility: it is the dissolved amount per volume that the medium holds.
